Patent US20220054543A1, “Enteric Use of Potassium Permanganate in Humans and Animals” (priority 2020, published 2022)

Tested on: common human coronaviruses (229E, NL63, OC43, and HKU1)
Assay: enteric administration to humans, treating common human coronavirus infections
Type: in vivo

Measured: effective in treating infections resulting from the common human coronaviruses

Potassium permanganate
effective: adult humans, inhalation by cold-mist inhaler or nebulizer, 3.0 ml of 1:10,000 dilution (0.1 mg/mL solution) per day for three days | adult humans, inhalation by cold-mist inhaler or nebulizer, 3.0 ml of 1:50,000 dilution (0.02 mg/mL solution) per day for three days | adult humans, inhalation by cold-mist inhaler or nebulizer, 3.0 ml of 1:100,000 dilution (0.01 mg/mL solution) per day for three days | humans, intravenous, 10.0 cc per 45.4 kg of 1:10,000 dilution (0.1 mg/mL solution) per day for three days | humans, intravenous, 10.0 cc per 45.4 kg of 1:50,000 dilution (0.02 mg/mL solution) per day for three days | humans, intravenous, 10.0 cc per 45.4 kg of 1:100,000 dilution (0.01 mg/mL solution) per day for three days | humans, oral, 1 mg/kg per day for three days | humans, oral, 1 mg/kg per day on a daily basis (prophylactic) | humans, oral, 5 mg/kg per day for three days | humans, oral, 10 mg/kg per day for three days
